Test systems include M19-MEL; DMS-114; LXFL 529; DLD-1; RXF 631; DMS-273; SNB-78; XF498; HOP-18.
Assay in all cases: inhibition of tumour cell growth, NCI panel, 48 h

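Each compound was tested at five concentrations against cells in 96-well plates for 48 hours. Abbreviation: GI50, concentration required for 50% inhibition of growth.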 Active and inactive are the calls of the source. No stated cut-off is given here; in the data, active = GI50 up to about 1.1 µM and inactive = higher.

For `COc1cc(C(C)c2cc3c(cc2OCCN)OCO3)cc(OC)c1OC` (stereo not drawn), the GI50 in the experiment with M19-MEL was 39.8 µM (inactive); in the experiment with DMS-114 it was 52 µM (inactive); in the experiment on LXFL 529 it was 75.5 µM (inactive); in the experiment on DLD-1, 36 µM (inactive); in the experiment with RXF 631, > 100 µM (inactive); in the experiment with DMS-273 it was > 100 µM (inactive).

For `CN(CCc1ccccn1)c1nc(=[N+](C)C)ss1`, the GI50 in the experiment on SNB-78 is > 100 µM (inactive); in the experiment on XF498 it was > 100 µM (inactive); in the experiment with HOP-18 it was > 100 µM (inactive); in the experiment on M19-MEL, 78.5 µM (inactive); with DMS-114 it was > 100 µM (inactive); in the experiment on LXFL 529 it was 72.9 µM (inactive). Moreover, the GI50 with DLD-1, in the experiment with RXF 631 and with DMS-273 was > 100 µM (inactive) throughout.

As to `CCCCCCCCCC[C@@H](O)[C@@H]1CC[C@H]([C@H]2CC[C@@H]([C@@H](O)CCCCCCCCCC[C@H]3CC(CC(C)=O)C(=O)O3)O2)O1` (stereo partly drawn), the GI50 in the experiment with SNB-78 is 10.9 µM (inactive); with M19-MEL it was 13.9 µM (inactive); in the experiment on DMS-114 it was < 0.01 µM (active); with LXFL 529 it was 3.3 µM (inactive); in the experiment with DLD-1 it was 16.6 µM (inactive); in the experiment with RXF 631, 8.91 µM (inactive). The GI50 in the experiment on DMS-273 is 10.3 µM (inactive).

Turning to `Cn1c(C2CCCc3c2c2ccccc2n3C)cc2ccccc21` (stereo not drawn), the GI50 is 8.02 µM (inactive) with HOP-18; 85.5 µM (inactive) with M19-MEL; 34.3 µM (inactive) in the experiment on DMS-114; 121 µM (inactive) in the experiment with LXFL 529; 126 µM (inactive) in the experiment with DLD-1; 126 µM (inactive) in the experiment on RXF 631. Moreover, in the experiment with DMS-273, the GI50 is 57.3 µM (inactive).

Consider `C=CCN1C(=O)C(=O)N(CC=C)C(=O)C1=O`, for which the GI50 in the experiment with SNB-78, in the experiment on XF498, in the experiment with M19-MEL, in the experiment on DMS-114, in the experiment on LXFL 529 and in the experiment with DLD-1 was > 100 µM (inactive) in each case. The GI50 in the experiment with DMS-273 is > 100 µM (inactive).

Turning to `COC(=O)/C(C#N)=C1\CCC(O)N1` (stereo not drawn), the GI50 in the experiment on SNB-78, in the experiment with XF498, with HOP-18, with M19-MEL, in the experiment on DMS-114 and with LXFL 529 was > 100 µM (inactive) in each case. For the same compound, the GI50 with DLD-1 and in the experiment on DMS-273 was > 100 µM (inactive) in each case.

As for `C/C(=N/NC(N)=S)C(CN(C)C)C(C1=C(O)c2ccccc2OC1)c1ccccc1` (stereo not drawn), the GI50 in the experiment with SNB-78, with XF498, with HOP-18, in the experiment with M19-MEL, in the experiment on DMS-114 and in the experiment on LXFL 529 was > 100 µM (inactive) each time. Further, the GI50 in the experiment on DLD-1 and in the experiment with DMS-273 was > 100 µM (inactive) each time.

Turning to `O=C(O)C1CCC(=O)N1C(=O)C(Cl)c1ccccc1` (stereo not drawn), the GI50 in the experiment with SNB-78, with XF498, with HOP-18, in the experiment on M19-MEL, in the experiment on DMS-114 and in the experiment on LXFL 529 was > 100 µM (inactive) each time. Besides, the GI50 in the experiment with DLD-1, in the experiment with RXF 631 and in the experiment with DMS-273 was > 100 µM (inactive) in each case.

In the case of `CC(SC(=S)Nc1cccc(F)c1)C(=O)O` (stereo not drawn), the GI50 with SNB-78 was 38.9 µM (inactive); with DMS-114, 15.1 µM (inactive); with LXFL 529, 17.9 µM (inactive); in the experiment on DMS-273 it was 11.8 µM (inactive).

For the compound `Cc1c(C(=O)C/C(=N\O)C(=O)Nc2cc(Cl)c(Cl)cc2Cl)[n+]([O-])c2ccccc2[n+]1[O-]`, the GI50 with SNB-78 was 41.3 µM (inactive); in the experiment on XF498, 25.9 µM (inactive); in the experiment with HOP-18, 20.7 µM (inactive); with M19-MEL, 2.2 µM (inactive); in the experiment with DMS-114 it was 4.37 µM (inactive); with LXFL 529, 15 µM (inactive). For the same compound, the figures for the GI50 with DLD-1 and in the experiment with DMS-273 were 22 µM (inactive) and 17.1 µM (inactive), respectively.

For the compound `CC/N=C(/C#N)NCC`, the GI50 was > 100 µM (inactive) with SNB-78; > 100 µM (inactive) in the experiment with XF498; > 100 µM (inactive) with HOP-18; > 100 µM (inactive) in the experiment on M19-MEL; 37.6 µM (inactive) with DMS-114; > 100 µM (inactive) in the experiment on LXFL 529. Moreover, the GI50 with DLD-1 was > 100 µM (inactive); with DMS-273 it was 44.5 µM (inactive).

As for `Cc1c2c(ccc3ccccc32)c[n+]2ccccc12`, the GI50 in the experiment with DMS-114 was 3.24 µM (inactive); with LXFL 529 it was 5.09 µM (inactive); in the experiment on DLD-1, 9.75 µM (inactive); with DMS-273, 12.7 µM (inactive).

As for `CCCCCCCCCCCC(=O)CC(=O)c1c(O)cccc1O`, the GI50 is 19.3 µM (inactive) in the experiment on SNB-78; 18.5 µM (inactive) in the experiment on XF498; 16.4 µM (inactive) in the experiment with HOP-18; 18.3 µM (inactive) with M19-MEL; 18.8 µM (inactive) with DMS-114; 18.2 µM (inactive) in the experiment on LXFL 529. Further, the values for the GI50 in the experiment with DLD-1 and in the experiment with DMS-273 were 17.7 µM (inactive) and 18.4 µM (inactive), respectively.

Take `C/C=C(/C)C(=O)O[C@H]1[C@H](O)CC(c2ccc3c(c2O)C(=O)C2=C(O)C4(OC)C(=O)C(C(N)=O)=C(O)[C@H](CC(=O)c5ccccc5O)C4CC2[C@@]3(C)OC)O[C@@H]1C` (stereo partly drawn): the GI50 in the experiment with HOP-18, in the experiment on M19-MEL, with DMS-114, in the experiment with LXFL 529, in the experiment with DLD-1 and in the experiment on DMS-273 was 0.01 µM (active) in each case.

Turning to `Cc1nnc2n1N=C(CC(=O)c1ccc(O)cc1O)CN2N`, the GI50 in the experiment with SNB-78 was > 100 µM (inactive); with M19-MEL it was 91.4 µM (inactive); in the experiment with DMS-114 it was 19.6 µM (inactive); with LXFL 529 it was > 100 µM (inactive); in the experiment on DLD-1 it was > 100 µM (inactive); with RXF 631, > 100 µM (inactive). Also, the GI50 in the experiment on DMS-273 was 40.4 µM (inactive).

Consider `O=C(NC(=S)Nc1ccccc1)c1ccc([N+](=O)[O-])cc1`, for which the GI50 in the experiment on SNB-78 was > 100 µM (inactive); with XF498 it was > 100 µM (inactive); in the experiment on HOP-18, > 100 µM (inactive); with M19-MEL, > 100 µM (inactive); in the experiment with DMS-114, 17.5 µM (inactive); in the experiment on LXFL 529 it was > 100 µM (inactive). Moreover, the GI50 with DLD-1 was 47.9 µM (inactive); with DMS-273, 60.3 µM (inactive).

Regarding `COc1ccc(C(=O)Nc2ccccc2C#N)cc1`, the GI50 in the experiment on SNB-78, in the experiment with XF498, in the experiment with HOP-18, in the experiment with M19-MEL, in the experiment on DLD-1 and in the experiment on DMS-273 was > 100 µM (inactive) throughout.

For the compound `COc1ccc(N2C(=O)C3c4[nH]c5ccc(OC)cc5c4C4CCC(C(C)(C)C)CC4C3C2=O)cc1` (stereo not drawn), the GI50 in the experiment on SNB-78 was 3.86 µM (inactive); with XF498, 56.2 µM (inactive); in the experiment on HOP-18 it was 44.1 µM (inactive); in the experiment on M19-MEL, 48.5 µM (inactive); with DMS-114 it was 34.4 µM (inactive); with LXFL 529, 17.6 µM (inactive). The GI50 in the experiment on DLD-1 was 64.7 µM (inactive); in the experiment on DMS-273, 10.2 µM (inactive).

In the case of `COc1ccc(C2[C@@H](Cl)C(=O)N2c2ccc(OC)cc2)cc1` (stereo partly drawn), the GI50 in the experiment with SNB-78 was > 100 µM (inactive); in the experiment with M19-MEL, 50.5 µM (inactive); in the experiment on DMS-114 it was 53 µM (inactive); in the experiment on LXFL 529 it was 62.8 µM (inactive); in the experiment with DLD-1, 89.5 µM (inactive); in the experiment on DMS-273, 62.7 µM (inactive).

As to `CCNC(=O)/C(=C/c1ccc(OC)cc1)c1cc(OC)c(OC)c(OC)c1`, the GI50 in the experiment with SNB-78 is 23.1 µM (inactive); in the experiment on XF498 it was 17.3 µM (inactive); in the experiment with HOP-18 it was > 100 µM (inactive); in the experiment with M19-MEL, 14.8 µM (inactive); in the experiment on DMS-114, 11.7 µM (inactive); in the experiment on LXFL 529 it was 24.2 µM (inactive). In addition, the results for the GI50 in the experiment on DLD-1, in the experiment on RXF 631 and with DMS-273 were 14.7 µM (inactive), 32.5 µM (inactive) and 3.47 µM (inactive), respectively.
